Laboratory results from patent US9221809B2 (MERCK SHARP & DOHME CORP., priority 2011, dated 2015).
Read-outs that look alike come from different tables or passages of the source.

Molecular target: IRAK4 (Homo sapiens (Human), UniProt Q9NWZ3)
Test: IRAK4 kinase activity, IMAP fluorescence polarization assay
Format: biochemical
Settings: 100 μM ATP
How it was run: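 GST-tagged IRAK4 at 0.5 nM phosphorylates 100 nM fluorescent peptide substrate with 100 μM ATP in pH 7.2 Tris buffer containing MgCl2, DTT and Tween 20, 30 min at 25 °C. Reaction stopped with IMAP binding reagent; phosphorylation read as increased fluorescence polarization.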

Sequence of IRAK4 (Q9NWZ3 whole entry): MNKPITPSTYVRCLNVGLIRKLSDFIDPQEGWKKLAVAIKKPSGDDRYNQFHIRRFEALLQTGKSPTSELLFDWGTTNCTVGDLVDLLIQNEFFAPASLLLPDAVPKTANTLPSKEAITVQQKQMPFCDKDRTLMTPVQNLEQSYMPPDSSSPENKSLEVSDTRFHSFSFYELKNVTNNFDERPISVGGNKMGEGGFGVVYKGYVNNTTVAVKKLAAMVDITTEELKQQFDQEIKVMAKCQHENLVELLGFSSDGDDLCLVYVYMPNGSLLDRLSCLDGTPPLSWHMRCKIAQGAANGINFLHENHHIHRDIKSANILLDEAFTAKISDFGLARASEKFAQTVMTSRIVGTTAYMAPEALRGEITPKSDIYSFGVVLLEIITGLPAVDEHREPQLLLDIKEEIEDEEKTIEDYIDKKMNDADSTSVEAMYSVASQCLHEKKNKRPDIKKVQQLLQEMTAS

O=c1[nH]c(N2CCC(c3ccccc3)CC2)nc(N[C@@H]2CCCNC2)c1-c1ccc2ccccc2n1 [Example 187, (R)-2-(4-phenylpiperidin-1-yl)-6-(piperidin-3-ylamino)-5-(quinolin-2-yl)pyrimidin-4(3H)-one]
IC50 (read-out: IRAK4 IC50): 16 nM

Cc1ccccc1C1CCN(c2nc(N[C@@H]3CCCNC3)c(-c3ccc4ccccc4n3)c(=O)[nH]2)CC1 [Example 188, (R)-6-(piperidin-3-ylamino)-5-(quinolin-2-yl)-2-(4-(o-tolyl)piperidin-1-yl)pyrimidin-4(3H)-one]
IC50 (read-out: IRAK4 IC50): 17 nM

COc1ccccc1C1CCN(c2nc(N[C@@H]3CCCNC3)c(-c3ccc4ccccc4n3)c(=O)[nH]2)CC1 [Example 189, (R)-2-(4-(2-methoxyphenyl)piperidin-1-yl)-6-(piperidin-3-ylamino)-5-(quinolin-2-yl)pyrimidin-4(3H)-one]
IC50 (read-out: IRAK4 IC50): 13 nM

O=c1[nH]c(N2CCC(c3ccccc3C(F)(F)F)CC2)nc(N[C@@H]2CCCNC2)c1-c1ccc2ccccc2n1 [Example 190, (R)-6-(piperidin-3-ylamino)-5-(quinolin-2-yl)-2-(4-(2-(trifluoromethyl)phenyl)piperidin-1-yl)pyrimidin-4(3H)-one]
IC50 (read-out: IRAK4 IC50): 32 nM

Cc1nsc(C2CCN(c3nc(N[C@@H]4CCCNC4)c(-c4ccc5ccccc5n4)c(=O)[nH]3)CC2)n1 [Example 191, (R)-2-(4-(3-methyl-1,2,4-thiadiazol-5-yl)piperidin-1-yl)-6-(piperidin-3-ylamino)-5-(quinolin-2-yl)pyrimidin-4(3H)-one]
IC50 (read-out: IRAK4 IC50): 138 nM

Cc1cc(C2CCN(c3nc(N[C@@H]4CCCNC4)c(-c4ccc5ccccc5n4)c(=O)[nH]3)CC2)[nH]n1 [Example 192, (R)-2-(4-(3-methyl-1H-pyrazol-5-yl)piperidin-1-yl)-6-(piperidin-3-ylamino)-5-(quinolin-2-yl)pyrimidin-4(3H)-one]
IC50 (read-out: IRAK4 IC50): 66 nM

O=c1[nH]c(N2CCC(c3cccc(F)n3)CC2)nc(N[C@@H]2CCCNC2)c1-c1ccc2ccccc2n1 [Example 193, (R)-2-(4-(6-fluoropyridin-2-yl)piperidin-1-yl)-6-(piperidin-3-ylamino)-5-(quinolin-2-yl)pyrimidin-4(3H)-one]
IC50 (read-out: IRAK4 IC50): 45 nM

O=c1[nH]c(N2CC3CC2CN3)nc(N[C@@H]2CCCNC2)c1-c1ccc2ccccc2n1 (stereo partly drawn) [Example 194, 2-(2,5-diazabicyclo[2.2.1]heptan-2-yl)-6-((R)-piperidin-3-ylamino)-5-(quinolin-2-yl)pyrimidin-4(3H)-one]
IC50 (read-out: IRAK4 IC50): 169 nM

COc1ccc(N2CC3CC2CN3c2nc(N[C@@H]3CCCNC3)c(-c3ccc4ccccc4n3)c(=O)[nH]2)cc1 (stereo partly drawn) [Example 195, 2-(5-(4-methoxyphenyl)-2,5-diazabicyclo[2.2.1]heptan-2-yl)-6-((R)-piperidin-3-ylamino)-5-(quinolin-2-yl)pyrimidin-4(3H)-one]
IC50 (read-out: IRAK4 IC50): 757 nM

O=c1[nH]c(N2CCOCC2)nc(N[C@@H]2CCCNC2)c1-c1nc2ccccc2o1 [Example 196]
IC50 (read-out: IRAK4 IC50): 1800 nM

CC(C)(C)c1cccc(-c2c(N[C@@H]3CCCNC3)nc(N3CCOCC3)[nH]c2=O)n1 [Example 197]
IC50 (read-out: IRAK4 IC50): 537 nM

O=c1[nH]c(N2CCOCC2)nc(N[C@@H]2CCCNC2)c1-c1cncc(-n2cccc2)n1 [Example 198]
IC50 (read-out: IRAK4 IC50): 3460 nM

O=c1[nH]c(N2CCOCC2)nc(N[C@@H]2CCCNC2)c1-c1ccccn1 [Example 199]
IC50 (read-out: IRAK4 IC50): 4760 nM

O=c1[nH]c(N2CCOCC2)nc(N[C@@H]2CCCNC2)c1-c1nc(-c2cccc(C(F)(F)F)c2)cs1 [Example 200]
IC50 (read-out: IRAK4 IC50): 141 nM

O=c1[nH]c(N2CCOCC2)nc(N[C@@H]2CCCNC2)c1-c1nc(-c2ccccc2F)cs1 [Example 201]
IC50 (read-out: IRAK4 IC50): 60 nM

O=c1[nH]c(N2CCOCC2)nc(N[C@@H]2CCCNC2)c1-c1nc(-c2ccc(Cl)cc2)cs1 [Example 202]
IC50 (read-out: IRAK4 IC50): 153 nM

O=c1[nH]c(N2CCOCC2)nc(N[C@@H]2CCCNC2)c1-c1nc(-c2cc(F)cc(F)c2)cs1 [Example 203]
IC50 (read-out: IRAK4 IC50): 99 nM

O=c1[nH]c(N2CCOCC2)nc(N[C@@H]2CCCNC2)c1-c1nc(-c2cccc(F)c2)cs1 [Example 204]
IC50 (read-out: IRAK4 IC50): 40 nM

O=c1[nH]c(N2CCOCC2)nc(N[C@@H]2CCCNC2)c1-c1nc(-c2cc(F)ccc2F)cs1 [Example 205]
IC50 (read-out: IRAK4 IC50): 90 nM

O=c1[nH]c(N2CCOCC2)nc(N[C@@H]2CCCNC2)c1-c1nc(-c2ccc(C(F)(F)F)cn2)cs1 [Example 206]
IC50 (read-out: IRAK4 IC50): 2400 nM

O=c1[nH]c(N2CCOCC2)nc(N[C@@H]2CCCNC2)c1-c1nc(-c2ccccn2)cs1 [Example 207]
IC50 (read-out: IRAK4 IC50): 21 nM

O=c1[nH]c(N2CCOCC2)nc(NC2CN3CCC2CC3)c1-c1nc2ccccc2s1 (stereo not shown) [Example 208, 5-(benzo[d]thiazol-2-yl)-2-morpholino-6-(quinolidin-3-ylamino)pyrimidin-4(3H)-one]
IC50 (read-out: IC50): 50 nM

C[C@H]1C[C@@H](Nc2nc(N3CCOCC3)[nH]c(=O)c2-c2nc3ccccc3s2)CN1 [Example 209, 5-(benzo[d]thiazol-2-yl)-6-(((3R,5S)-5-methylpyrrolidin-3-yl)amino)-2-morpholinopyrimidin-4(3H)-one]
IC50 (read-out: IC50): 359 nM

C[C@@H]1C[C@@H](Nc2nc(N3CCOCC3)[nH]c(=O)c2-c2nc3ccccc3s2)CN1 [Example 210, 5-(benzo[d]thiazol-2-yl)-6-(((3R,5R)-5-methylpyrrolidin-3-yl)amino)-2-morpholinopyrimidin-4(3H)-one]
IC50 (read-out: IC50): 150 nM

O=c1[nH]c(N2CCOCC2)nc(N[C@@H]2C[C@@H]3CN[C@H]2C3)c1-c1nc2ccccc2s1 [Example 211, 6-((1S,4R,6R)-2-azabicyclo[2.2.1]heptan-6-ylamino)-5-(benzo[d]thiazol-2-yl)-2-morpholinopyrimidin-4(3H)-one]
IC50 (read-out: IC50): 191 nM

O=c1[nH]c(N2CCOCC2)nc(N[C@H]2CNCC(F)(F)C2)c1-c1nc2ccccc2s1 [Example 212, (R)-5-(benzo[d]thiazol-2-yl)-6-((5,5-difluoropiperidin-3-yl)amino)-2-morpholinopyrimidin-4(3H)-one]
IC50 (read-out: IC50): 792 nM

O=c1[nH]c(N2CCOCC2)nc(N[C@H]2CNCC[C@@H]2F)c1-c1nc2ccccc2s1 [Example 213, 5-(benzo[d]thiazol-2-yl)-6-(((3S,4S)-4-fluoropiperidin-3-yl)amino)-2-morpholinopyrimidin-4(3H)-one]
IC50 (read-out: IC50): 14 nM

O=c1[nH]c(N2CCOCC2)nc(N[C@@H]2CCCNC2)c1-c1csc(-n2cccc2)n1 [Example 214, (R)-5-(2-(1H-pyrrol-1-yl)thiazol-4-yl)-2-morpholino-6-(piperidin-3-ylamino)pyrimidin-4(3H)-one]
IC50 (0.5 nM GST tagged IRAK4, read-out: IRAK4 IC50): 12 nM

O=c1[nH]c(N2CCOCC2)nc(N[C@@H]2CCCNC2)c1-c1cccc(-n2cccc2)n1 [Example 215, (R)-5-(6-(1H-pyrrol-1-yl)pyridin-2-yl)-2-morpholino-6-(piperidin-3-ylamino)pyrimidin-4(3H)-one]
IC50 (read-out: IC50): 185 nM

O=C1CCCN1c1cccc(-c2c(N[C@@H]3CCCNC3)nc(N3CCOCC3)[nH]c2=O)n1 [Example 216, (R)-2-morpholino-5-(6-(2-oxopyrrolidin-1-yl)pyridin-2-yl)-6-(piperidin-3-ylamino)pyrimidin-4(3H)-one]
IC50 (read-out: IC50): 258 nM

O=c1[nH]c(N2CCOCC2)nc(N[C@@H]2CCCNC2)c1-c1csc(-n2cccn2)n1 [Example 217, (R)-5-(2-(1H-pyrazol-1-yl)thiazol-4-yl)-2-morpholino-6-(piperidin-3-ylamino)pyrimidin-4(3H)-one]
IC50 (read-out: IC50): 82 nM
